Legend:
[1] = Induction of cell apoptosis in human MV4-11 cells assessed as […] cells at 500 nM incubated for 48 hrs by Annexin V-FITC/Propidium iodide staining based flow cytometry analysis (reference value: 96.6%); assay type: functional
[2] = AUC (0 to infinity) in Sprague-Dawley rat at 1 mg/kg, iv by LC-MS/MS analysis; assay type: ADME, organism-based; parameters: time infinity, dose 1 mg/kg, route iv; conditions: in vivo
[3] = Clearance in Sprague-Dawley rat at 1 mg/kg, iv by LC-MS/MS analysis; assay type: ADME, organism-based; conditions: in vivo
[4] = Metabolic stability in rat liver microsomes assessed as elimination half life incubated for 1 hr by LC-MS/MS analysis; assay type: ADME, Microsome; conditions: read-out: beta t1/2
[5] = Metabolic stability in dog liver assessed as intrinsic clearance incubated for 1 hr by LC-MS/MS analysis; assay type: ADME, tissue-based, Canis lupus familiaris; conditions: read-out: CLH
[6] = test system: SNB-75; assay: Antiproliferative activity against human SNB-75 cells assessed as cell growth inhibition measured after 72 hrs by CellTiter-Glo assay; assay type: functional
[7] = Metabolic stability in monkey liver microsomes assessed as intrinsic clearance incubated for 1 hr by LC-MS/MS analysis; assay type: ADME, Macaca mulatta, Microsome; conditions: rhesus monkey, read-out: CLH
[8] = Metabolic stability in human liver assessed as intrinsic clearance incubated for 1 hr by LC-MS/MS analysis; assay type: ADME, tissue-based; conditions: read-out: CLH
[9] = test system: MV4-11; assay: Antitumor activity against human MV4-11 cells xenografted BALB/c nude mouse model assessed as tumor growth inhibition at 80 mg/kg, po QD administered for 28 consecutive days; assay type: functional; conditions: MV4-11, 672 h, time 28 day, read-out: TGI
[10] = Metabolic stability in human liver microsomes assessed as elimination half life incubated for 1 hr by LC-MS/MS analysis; assay type: ADME, Microsome; conditions: read-out: beta t1/2
[11] = test system: NCI-H522; assay: Antiproliferative activity against human NCI-H522 cells assessed as cell growth inhibition measured after 72 hrs by CellTiter-Glo assay; assay type: functional
[12] = C0 in Sprague-Dawley rat at 1 mg/kg, iv by LC-MS/MS analysis; assay type: ADME, organism-based; conditions: in vivo
[13] = Induction of cell apoptosis in human MV4-11 cells assessed as […] cells at 1000 nM incubated for 48 hrs by Annexin V-FITC/Propidium iodide staining based flow cytometry analysis (reference value: 96.6%); assay type: functional

Which Activity [1] does the source give for `CC(=O)c1c(C)[nH]c(-c2nc3cc(N4CCN(C)CC4)ccc3[nH]2)c1-c1ccccc1` here?
The Activity was 6.31%.

What about the AUC(0-inf) [2] of the same compound?
Its AUC(0-inf) is 725 ng·h/mL.

And the clearance [3]?
Its clearance is 24.3 mL/min/kg.

What about the half-life [4] of the same compound?
The half-life was 1.11 h.

And the CLint scaled [5]?
The CLint scaled was 133 mL/min/kg.

What about the GI50 [6] of the same compound?
The GI50 was 41.6 nM.

What about the microsomal CLint [7] of the same compound?
Its microsomal CLint is 16.5 µL/min/mg.

And the CLint scaled [8]?
Its CLint scaled is 6.64 mL/min/kg.

What about the inhibition in vivo at 80 mg/kg [9] of the same compound?
The inhibition in vivo at 80 mg/kg was 34.8%.

And the half-life [10]?
The half-life was 3.32 h.

And the GI50 [11]?
The GI50 was 258 nM.

And the C0 [12]?
The C0 was 548 ng/mL.

And the Activity [13]?
Its Activity is 48.2%.

Source: ChEMBL document CHEMBL5136977, “Discovery of 1-(5-(1H-benzo[d]imidazole-2-yl)-2,4-dimethyl-1H-pyrrol-3-yl)ethan-1-one derivatives as novel and potent bromodomain and extra-terminal (BET) inhibitors with anticancer efficacy” (Eur J Med Chem, 2022)
